From patent US20150376196A1, “4-SUBSTITUTED PYRROLO- AND PYRAZOLO-DIAZEPINES” (BAYER PHARMA AKTIENGESELLSCHAFT, priority 2013, published 2015)
Where two headings read alike, the source gives them in different places.

Assays:
LAPC-4 cells = test: Cell proliferation assay (alamarBlue), LAPC-4; type: cell-based; settings: Homo sapiens, LAPC4, Prostate, 1 nM methyltrienolone, 168 hours, inhibition of cell proliferation
Protocol: (§1) In accordance with the invention, the ability of the substances to inhibit cell proliferation was determined Cell viability was determined by means of the alamarBlue® reagent (Invitrogen) in a Victor X3 Multilabel Reader (Perkin Elmer). The excitation wavelength was 530 nm and the emission wavelength […].
The LAPC-4 cells (ATCC, PTA-1441TM) were sown at a concentration of 4000 cells/well in 100 μl of growth medium (RPMI1640, 2 mM L-glutamine, 10% cFCS) on 96-well microtitre plates. One day later, the LAPC-4 cells were treated with 1 nM methyltrienolone and various substance dilutions.
(§2) The MDA-MB-231 cells (DSMZ, ACC 732) were sown at a concentration of 4000 cells/well in 100 μl of growth medium (DMEM/Ham's F12 medium, 10% FCS) on 96-well microtitre plates. After overnight incubation at 37° C., the fluorescence values (CI values) were determined. Then the plates were treated with various substance dilutions (1E-5 M, 3E-6 M, 1E-6 M, 3E-7 M, 1E-7 M, 3E-8 M, 1E-8 M) and incubated at 37° C. for 72 (MV-4-11, LOX-IMVI cells), 96 (MOLM-13, B16F10, […] cells), 120 (MOLP-8, KMS-12-PE cells) or 168 (LAPC-4 cells) hours. Subsequently, the fluorescence values were determined (CO values). For the data analysis, the CI values were subtracted from the CO values and the results were compared between cells which had been treated with various dilutions of the substance or only with buffer solution. The ICso values (substance concentration needed for 50% inhibition of cell proliferation) were calculated therefrom.
(§3) The substances were tested in the cell lines in Table 1, which represent the indications specified by way of example: […]

BRD4 (BD1) = target: T1, BRD4 (BD1) (Homo sapiens, UniProt O60885); test: Binding assay BRD4/acetylated peptide H4 (TR-FRET protein-protein interaction assay)
T1 construct: amino acids 67-152, longer constructs also being possible, preferably amino acids 44-168; made in house; host or cells: E. coli
Source text: To assess the BRD4 binding strength of the substances described in this application, the ability thereof to inhibit the interaction between BRD4 (BD1) and acetylated histone H4 in a dose-dependent manner was quantified.
For this purpose, a time-resolved fluorescence resonance energy transfer (TR-FRET) assay was used, which measures the binding between N-terminally His6-tagged BRD4 (BD1) (amino acids 67-152, longer constructs also being possible, preferably amino acids 44-168) and a synthetic acetylated histone H4 (Ac-H4) peptide with sequence GRGK(Ac)GGK(Ac)GLGK(Ac)GGAK(Ac)RHGSGSK-biotin. The recombinant BRD4 protein produced in-house according to Filippakopoulos et al., Nature, 2010, 468:1119-1123 was expressed in E. coli and purified by means of (Ni-NTA) affinity and (Sephadex G-75) size exclusion chromatography. The Ac-H4 peptide can be purchased, for example, from Biosyntan (Berlin, Germany).
In the assay, typically 11 different concentrations of each substance (0.1 nM, 0.33 nM, 1.1 nM, 3.8 nM, 13 nM, 44 nM, 0.15 μM, 0.51 μM, 1.7 μM, 5.9 μM and 20 μM) were analysed as duplicates on the same microtitre plate. For this purpose, 100-fold concentrated solutions in DMSO were prepared by serial dilutions (1:3.4) of a 2 mM stock solution into a clear, 384-well microtitre plate (Greiner Bio-One, Frickenhausen, Germany). From this, 50 nl were transferred into a black test plate (Greiner Bio-One, Frickenhausen, Germany). The test was started by the addition of 2 μl of a 2.5-fold concentrated BRD4 solution (final concentration typically 10 nM in the 5 μl of reaction volume) in aqueous assay buffer [50 mM HEPES pH 7.5, 50 mM sodium chloride (NaCl), 0.25 mM CHAPS and 0.05% serum albumin (BSA)] to the substances in the test plate. This was followed by a 10-minute incubation step at 22° C. for the pre-equilibration of putative complexes between BRD4 and the substances.
The mixture was then incubated in the dark at 22° C. for one hour and then at 4° C. for at least 3 hours and for no longer than overnight. The formation of BRD4/Ac-H4 complexes was determined by the measurement of the resonance energy transfer from the streptavidin-Eu cryptate to the anti-6His-XL665 antibody present in the reaction. For this purpose, the fluorescence emission was measured at 620 nm and 665 nm after excitation at 330-350 nm in a TR-FRET measuring instrument, for example a Rubystar or Pherastar (both from BMG Lab Technologies, Offenburg, Germany) or a Viewlux (Perkin-Elmer). The ratio of the emissions at 665 nm and at 622 nm was taken as an indicator of the amount of BRD4/Ac-H4 complexes formed.
The data (ratios) obtained were normalized, with 0% inhibition corresponding to the mean from the measurements for a set of controls (typically 32 data points) in which all the reagents were present. In these, in place of test substances, 50 nl of DMSO (100%) were used Inhibition of 100% corresponded to the mean from the measurements for a set of controls (typically 32 data points) in which all the reagents except BRD4 were present. The IC50 was determined by regression analysis based on a 4-parameter equation (minimum, maximum, IC50, Hill; Y=max+(min−max)/(1+(X/IC50)^Hill)).

MOLM-13 cells = test: Cell proliferation assay (alamarBlue), MOLM-13; type: cell-based; settings: Homo sapiens, Leukaemia, 96 hours, inhibition of cell proliferation
Protocol: as §1
The MOLM-13 cells (DSMZ, ACC 554) were sown at a concentration of 4000 cells/well in 100 μl of growth medium (RPMI1640, 10% FCS) on 96-well microtitre plates.
as §2, §3

[1] = BRD4 (BD1) / acetylated histone H4 peptide, TR-FRET, read-out: IC50 (BRD4)

SMILES	IC50 (LAPC-4 cells)	IC50 (BRD4 (BD1); [1])	IC50 (MOLM-13 cells)	IC50 (BRD4 (BD1))
CC(=O)N1CC(NC(=O)C[C@@H]2N=C(c3ccc(Cl)cc3)c3c(cn(C)c3C)-n3c(C)nnc32)C1 [Example 9, N-(1-Acetylazetidin-3-yl)-2-(4S)-[6-(4-chlorophenyl)-1,7,8-trimethyl-4,8-dihydropyrrolo[3,4-f][1,2,4]triazolo[4,3-a][1,4]diazepin-4-yl]acetamide]	550 nM	110 nM	610 nM	–
Cc1c2c(cn1C)-n1c(C)nnc1[C@H](CC(=O)N1CCN(C(=O)OC(C)(C)C)CC1)N=C2c1ccc(Cl)cc1 [Example 22, (−)-4-{[(4S)-6-(4-Chlorophenyl)-1,7,8-trimethyl-4,8-dihydropyrrolo[3,4-f][1,2,4]triazolo[4,3-a][1,4]diazepin-4-yl]acetyl}piperazine-1-carboxylic acid tert-butyl ester]	340 nM	20 nM	720 nM	–
Cc1c2c(cn1C)-n1c(C)nnc1[C@H](CC(=O)N1CCOCC1)N=C2c1ccc(Cl)cc1 [Example 21]	240 nM	40 nM	520 nM	–
Cc1c2c(cn1C)-n1c(C)nnc1C(Cc1nc(C(C)C)no1)N=C2c1ccc(Cl)cc1 (stereo not drawn) [Example 29, 6-(4-Chlorophenyl)-1,7,8-trimethyl-4-{[3-(propan-2-yl)-1,2,4-oxadiazol-5-yl]methyl}-4,8-dihydropyrrolo[3,4-f][1,2,4]triazolo[4,3-a][1,4]diazepine]	–	30 nM	80 nM	–
Cc1nnc2n1-c1cn(C)nc1C(c1ccc(Cl)cc1)=NC2CC(=O)N1CCOCC1 (stereo not drawn) [Example 16, 2-[6-(4-Chlorophenyl)-1,8-dimethyl-4,8-dihydropyrazolo[3,4-f][1,2,4]triazolo[4,3-a][1,4]diazepin-4-yl]-1-(morpholin-4-yl)ethanone]	–	700 nM	4550 nM	–
Cc1c2c(cn1C)-n1c(C)nnc1[C@H](CC(=O)OC(C)(C)C)N=C2c1ccccc1 [Example 4, (−)-2-(4S)-(1,7,8-Trimethyl-6-phenyl-4,8-dihydropyrrolo[3,4f][1,2,4]triazolo[4,3-a][1,4]diazepin-4-yl)acetic acid tert-butyl ester]	–	–	–	310 nM
Cc1c2c(cn1C)-n1c(C)nnc1C(Cc1nc(C3CC3)no1)N=C2c1ccc(Cl)cc1 (stereo not drawn) [Example 24, 6-(4-Chlorophenyl)-4-[(3-cyclopropyl-1,2,4-oxadiazol-5-yl)methyl]-1,7,8-trimethyl-4,8-dihydropyrrolo[3,4-f][1,2,4]triazolo[4,3-a][1,4]diazepine]	–	50 nM	80 nM	–
Cc1c2c(cn1C)-n1c(C)nnc1[C@H](CC(=O)N1CCOCC1)N=C2c1ccccc1 [Example 19, 1-(Morpholin-4-yl)-2-[(4S)-1,7,8-trimethyl-6-phenyl-4,8-dihydropyrrolo[3,4f][1,2,4]triazolo[4,3-a][1,4]diazepin-4-yl]ethanone]	700 nM	240 nM	1240 nM	–
CCNC(=O)CC1N=C(c2ccc(Cl)cc2)c2nn(C)cc2-n2c(C)nnc21 (stereo not drawn) [Example 18, 2-[6-(4-Chlorophenol)-1,8-dimethyl-4,8-dihydropyrazolo[3,4-f][1,2,4]triazolo[4,3-a][1,4]diazepin-4-yl]-N-ethylacetamide]	–	780 nM	–	–
CCc1noc(CC2N=C(c3ccc(Cl)cc3)c3c(cn(C)c3C)-n3c(C)nnc32)n1 (stereo not drawn) [Example 27, 6-(4-Chlorophenyl)-1,7,8-trimethyl-4-[(3-ethyl-1,2,4-oxadiazol-5-yl)methyl]-4,8-dihydropyrrolo[3,4-f][1,2,4]triazolo[4,3-a][1,4]diazepine]	–	30 nM	100 nM	–
Cc1c2c(cn1C)-n1c(C)nnc1C(Cc1nc(C(C)(C)C)no1)N=C2c1ccc(Cl)cc1 (stereo not drawn) [Example 31, 4-[(3-tert-Butyl-1,2,4-oxadiazol-5-yl)methyl]-6-(4-chlorophenyl)-1,7,8-trimethyl-4,8-dihydropyrrolo[3,4-f][1,2,4]triazolo[4,3-a][1,4]diazepine]	350 nM	490 nM	490 nM	–
CCNC(=O)C[C@@H]1N=C(c2ccc(Cl)cc2)c2c(cn(C)c2C)-n2c(C)nnc21 [Example 10, (−)-2-[(4S)-6-(4-Chlorophenyl)-1,7,8-trimethyl-4,8-dihydropyrrolo[3,4f][1,2,4]triazolo[4,3-a][1,4]diazepin-4-yl]-N-ethylacetamide]	–	170 nM	450 nM	–
Cc1c2c(cn1C)-n1c(C)nnc1[C@H](CC(=O)N1CCN3C(=O)CCC3C1)N=C2c1ccc(Cl)cc1 (single isomer, unassigned; (-)) [Example 23]	470 nM	50 nM	880 nM	–
Cc1nnc2n1-c1cn(C)nc1C(c1ccc(Cl)cc1)=NC2CC(=O)N1CC(F)C1 (stereo not drawn) [Example 17, 2-[6-(4-Chlorophenyl)-1,8-dimethyl-4,8-dihydropyrazolo[3,4-f][1,2,4]triazolo[4,3-a][1,4]diazepin-4-yl]-1-(3-fluoroazetidin-1-yl)ethanone]	–	1140 nM	–	–
Cc1noc(CC2N=C(c3ccc(Cl)cc3)c3c(cn(C)c3C)-n3c(C)nnc32)n1 (stereo not drawn) [Example 25, 6-(4-Chlorophenyl)-1,7,8-trimethyl-4-[(3-methyl-1,2,4-oxadiazol-5-yl)methyl]-4,8-dihydropyrrolo[3,4-f][1,2,4]triazolo[4,3-a][1,4]diazepine]	80 nM	90 nM	130 nM	–
Cc1nnc2n1-c1cn(C)nc1C(c1ccc(Cl)cc1)=N[C@H]2CC(=O)N1CCS(=O)(=O)CC1 [Example 15, 2-[(4S)-6-(4-Chlorophenyl)-1,8-dimethyl-4,8-dihydropyrazolo[3,4f][1,2,4]triazolo[4,3-a][1,4]diazepin-4-yl]-1-(1,1-dioxidothiomorpholin-4-yl)ethanone]	–	450 nM	2980 nM	–
Cc1c2c(cn1C)-n1c(C)nnc1[C@H](CC(=O)N1CC(Oc3ccccc3)C1)N=C2c1ccc(Cl)cc1 [Example 20, (−)-2-[(4S)-6-(4-Chlorophenyl)-1,7,8-trimethyl-4,8-dihydropyrrolo[3,4f][1,2,4]triazolo[4,3-a][1,4]diazepin-4-yl]-1-(3-phenoxyazetidin-1-yl)ethanone]	410 nM	60 nM	920 nM	–
